Source: the NIST ThermoML archive (doi:10.1016/j.jct.2017.10.011)
Numbers after ± are expanded uncertainties.

Key:
[1] = Crystal 2; DSC
[2] = Molar enthalpy of transition or fusion; details: Crystal 2; DSC

Triple point temperature [1]: 317.51 ± 2.1 K
Molar enthalpy of transition or fusion [2]: 0.422 ± 0.0502 kcal/mol
SMILES: O=C1COC(=O)CO1 [1,4-dioxane-2,5-dione]
